Paper PMC10791743, “Selective CK1α degraders exert antiproliferative activity against a broad range of human cancer cell lines” (Nature Communications, 2024)

Assay: Liver microsomes stability assay, human
Assay type: in vitro ADME
Description: page 31: using a REMS Autosampler (World Precision Instruments, Sarasota, […]1 cells were grown for 5 days to reach a consistent confluency level monitored by epithelial voltohmmeter to confirm the intactness of the confluent polarized monolayer. For transport experiments, each cultured monolayer on the 96-well plate was washed twice with a transport buffer (HBSS/25 mM […] The cell-based permeability assay was initiated by the addition of each compound solution (10 μmol/L) into inserts (apical side, A) or receivers (basolateral side, B). After incubated […] (if basal to apical permeability), and concentrations were assessed by UPLC/MS (Waters; Milford, MA). All compounds were tested in triplicates. The A→B (or B→A) apparent permeability coefficients (Papp) of each compound were calculated using the equation (3): […], where dQ/dt equals the flux of a drug across the monolayer, the parameters of A equals the surface area of total insert well, and C0 is the initial concentration of substrate in the donor compartment. The efflux ratio was determined by dividing the Papp in the B-A direction by the Papp in the A-B direction. […] NADPH regenerating agent solutions A and B (Corning GentestTM, Cat. No: 451220) were purchased from Discovery Labware (Woburn, MA). Mouse liver microsomes (CD-1, pooled, GibcoTM, Cat. No: MSMCPL) were obtained from Thermo Fisher Scientific (Fredrick, MD). Pooled human liver microsomes (mixed gender, Cat. No: E0630) were purchased from XenoTech (Lenexa, KS). Stock solutions of test compounds were prepared at 10 mM in DMSO. Sample preparation for microsomal stability was modified from Di's publications3,4. […] and 4 hours) by Labcyte Echo 650 acoustic dispenser (Beckman Coulter Life Sciences, Indianapolis, IN). All compounds were tested in triplicate per time point. […] Plasma stability assay5: The degradation of human or mouse plasma was assessed by monitoring the gradual reduction of the parent compound over specified time intervals (0, 3, 24, and 48 hours). […]

## O=C1CCC(N2Cc3cc(Nc4noc5ccccc45)ccc3C2=O)C(=O)N1 (stereo not drawn) [SJ3149]
Both sexes, human, liver microsomes, pH 7.4, read-out: Microsome stability t1/2
  half-life at 10 µM: > 10 h

## O=C1CCC(N2Cc3cc(Nc4noc5ccccc45)ccc3C2=O)C(=O)N1 (stereo not drawn) [SJ001043149-1]
  Ke: -0.00692
  t(1/2): -100.22
